# Changes are numbered by the printed parent chain.
# What was measured:
# hA1AR D55V^2.50 = biological target: T1, hA1AR D55V^2.50 (Homo sapiens, UniProt P30542, D55V); experiment: yeast liquid growth assay; assay type: cell-based; conditions: result in words
# T1 construct: expressed in transfected cells; host or cells: S. cerevisiae MMY24
# T1 sequence (P30542 1-326 D55V): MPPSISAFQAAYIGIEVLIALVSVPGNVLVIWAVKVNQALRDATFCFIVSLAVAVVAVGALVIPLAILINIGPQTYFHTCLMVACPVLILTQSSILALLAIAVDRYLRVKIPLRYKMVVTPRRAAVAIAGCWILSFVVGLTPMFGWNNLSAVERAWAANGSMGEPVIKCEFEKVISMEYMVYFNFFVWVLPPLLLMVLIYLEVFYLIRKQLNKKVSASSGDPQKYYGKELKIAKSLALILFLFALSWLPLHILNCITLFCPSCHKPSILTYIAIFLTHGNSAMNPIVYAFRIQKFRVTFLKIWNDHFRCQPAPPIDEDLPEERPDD
# wild type hA1AR [1] = biological target: T2, wild type hA1AR (Homo sapiens, UniProt P30542); experiment: yeast liquid growth assay; assay type: cell-based; conditions: ratio over basal activity of wild type hA1AR, 7 mM 3-AT
# T2 sequence (P30542 1-326): T1 sequence (P30542 1-326 D55V) with V55D
# hA1AR T257P^6.58 = biological target: T3, hA1AR T257P^6.58 (Homo sapiens, UniProt P30542, T257P); experiment: yeast liquid growth assay; assay type: cell-based; conditions: result in words
# T3 construct: expressed in transfected cells; host or cells: S. cerevisiae MMY24
# T3 sequence (P30542 1-326 T257P): T1 sequence (P30542 1-326 D55V) with V55D, T257P
# wild type hA1AR [2] = biological target: T2, wild type hA1AR; experiment: [3H]DPCPX radioligand displacement assay, CHO membranes; assay type: binding; conditions: fraction of high-affinity state; two-site model
# Description: Transient transfection of CHO cells with wild type or mutated hA1AR plasmid constructs was performed using a polyethylenimine (PEI) method. Cells were seeded in 10-cm culture dishes to achieve 50–60% confluency 24 h prior to transfection. On the day of transfection, cells were transfected with a PEI: DNA ratio of 3:1 and a plasmid DNA amount of 10 μg/dish. Moreover, 24 h post-transfection, the medium was refreshed, and 48 h after transfection, cells were collected and membranes were prepared as previously described. Membranes were aliquoted in 250 or 100 μL and stored at −80 °C. Membrane protein concentrations were determined using the BCA method.
# The displacement assays were performed as described previously. […] After the addition of 25 µL per well of the Microscint scintillation cocktail (PerkinElmer, Groningen, The Netherlands), the filter-bound radioactivity was measured by scintillation spectrometry in a Microbeta2® 2450 microplate counter (PerkinElmer).
# All experimental data were analyzed by GraphPad Prism 7.0 or 8.0 (GraphPad Software Inc., San Diego, CA, USA). Data from yeast liquid growth and [^35S]GTPγS binding assays were analyzed by non-linear regression using “log (agonist) vs. response (three parameters)” or “log (inhibitor) vs. response (three parameters)” to obtain potency (EC50), inhibitory potency (IC50), and efficacy (Emax or Imax) values. […]
# A1AR P86F^3.31 = test system: A1AR P86F^3.31; design: method as in PMID 9920910; conditions: result in words; cited from earlier work
structure (smiles),measurement,setting,value
"OC[C@H]1O[C@@H](n2cnc3c(NC4CCCC4)ncnc32)[C@H](O)[C@@H]1O [CPA, N^6-cyclopentyladenosine]",agonist-induced receptor activation,hA1AR D55V^2.50,could not be activated
same,Emax,wild type hA1AR [1],4.83 ± 0.30
same,agonist-induced receptor activation,hA1AR T257P^6.58,could not be activated
same,Fraction (High),wild type hA1AR [2],0.15 ± 0.03
same,CPA binding,A1AR P86F^3.31,abolished
